In the NIST ThermoML archive (doi:10.1016/j.jct.2012.02.037):
Numbers after ± are expanded uncertainties.

Tests used:
[1] = 303.15 K; 101.33 kPa; Liquid; Vibrating tube method
[2] = refractive index (Na D-line) (dimensionless); details: 303.15 K; 101.33 kPa; Liquid; Standard Abbe refractometry
[3] = excess molar enthalpy (molar enthalpy of mixing); xn = mol fraction of the nth substance listed; details: 300 K, 101 kPa, Liquid, Flow calorimetry

CCCCO [butan-1-ol]
Details	mass density [kg/m3]	refractive index
[1]	801.98 ± 0.15	–
[2]	–	1.3962 ± 0.0005

CCC(C)O (configuration not stated) [butan-2-ol]
Details	mass density [kg/m3]	refractive index
[1]	798.58 ± 0.24	–
[2]	–	1.394 ± 0.0005

OC1CCCCC1 [cyclohexanol]
Details	mass density [kg/m3]	refractive index
[1]	941.36 ± 0.23	–
[2]	–	1.4632 ± 0.0005

OC1CCCCC1 [cyclohexanol] + CC(C)O
[3]
Details	excess molar enthalpy [kcal/mol]
x1 = 0.0817	0.0162 ± 0.00043
x1 = 0.1653	0.0276 ± 0.000669
x1 = 0.2454	0.0356 ± 0.000837
x1 = 0.3436	0.0429 ± 0.00098
x1 = 0.5462	0.0466 ± 0.00105
x1 = 0.6326	0.0451 ± 0.00103
x1 = 0.7173	0.0405 ± 0.000932
x1 = 0.8036	0.0298 ± 0.000717
x1 = 0.9097	0.0172 ± 0.000454

OC1CCCCC1 [cyclohexanol] + CCC(C)O
[3]
Details	excess molar enthalpy [kcal/mol]
x1 = 0.0831	0.0112 ± 0.000335
x1 = 0.0874	0.0117 ± 0.000335
x1 = 0.1613	0.019 ± 0.000478
x1 = 0.1704	0.0201 ± 0.000502
x1 = 0.2787	0.0284 ± 0.000669
x1 = 0.3304	0.0304 ± 0.000717
x1 = 0.4131	0.0334 ± 0.000789
x1 = 0.5657	0.0359 ± 0.000837
x1 = 0.6512	0.0363 ± 0.000837
x1 = 0.7441	0.0325 ± 0.000765
x1 = 0.7557	0.0319 ± 0.000741
x1 = 0.8271	0.0247 ± 0.000598
x1 = 0.8352	0.0238 ± 0.000574
x1 = 0.9129	0.0128 ± 0.000359
x1 = 0.9201	0.0127 ± 0.000359

OC1CCCCC1 [cyclohexanol] + CCCCO
[3]
Details	excess molar enthalpy [kcal/mol]
x1 = 0.0976	0.00894 ± 0.000287
x1 = 0.1867	0.0143 ± 0.000382
x1 = 0.3025	0.0214 ± 0.000526
x1 = 0.3622	0.0241 ± 0.000598
x1 = 0.4484	0.0271 ± 0.000645
x1 = 0.5609	0.0279 ± 0.000669
x1 = 0.6402	0.0279 ± 0.000669
x1 = 0.7119	0.0261 ± 0.000621
x1 = 0.7842	0.022 ± 0.00055
x1 = 0.785	0.0223 ± 0.00055
x1 = 0.8549	0.0168 ± 0.000454
x1 = 0.8747	0.0141 ± 0.000382
x1 = 0.9059	0.011 ± 0.000335

OC1CCCCC1 [cyclohexanol] + CCCO
[3]
Details	excess molar enthalpy [kcal/mol]
x1 = 0.0808	0.00583 ± 0.000239
x1 = 0.1568	0.0106 ± 0.000335
x1 = 0.2326	0.0151 ± 0.000406
x1 = 0.3085	0.0175 ± 0.000454
x1 = 0.3888	0.0201 ± 0.000502
x1 = 0.4614	0.0226 ± 0.00055
x1 = 0.547	0.0236 ± 0.000574
x1 = 0.6359	0.023 ± 0.000574
x1 = 0.7223	0.0205 ± 0.000526
x1 = 0.8063	0.0166 ± 0.00043
x1 = 0.901	0.00978 ± 0.000311

OC1CCCCC1 [cyclohexanol] + CCO
[3]
Details	excess molar enthalpy [kcal/mol]
x1 = 0.0883	0.0164 ± 0.00043
x1 = 0.1688	0.0283 ± 0.000669
x1 = 0.2501	0.0351 ± 0.000813
x1 = 0.337	0.0397 ± 0.000908
x1 = 0.456	0.0422 ± 0.000956
x1 = 0.5436	0.0424 ± 0.00098
x1 = 0.6255	0.0391 ± 0.000908
x1 = 0.7119	0.0348 ± 0.000813
x1 = 0.8026	0.0279 ± 0.000669
x1 = 0.9062	0.016 ± 0.00043

OC1CCCCC1 [cyclohexanol] + CO
[3]
Details	excess molar enthalpy [kcal/mol]
x1 = 0.0742	0.0249 ± 0.000598
x1 = 0.1422	0.0368 ± 0.00086
x1 = 0.2234	0.0468 ± 0.00105
x1 = 0.2948	0.051 ± 0.00115
x1 = 0.4871	0.0514 ± 0.00115
x1 = 0.5587	0.0463 ± 0.00105
x1 = 0.6333	0.0406 ± 0.000932
x1 = 0.7266	0.0318 ± 0.000741
x1 = 0.8274	0.0196 ± 0.000502
x1 = 0.9162	0.0101 ± 0.000311

CCO [ethanol]
Details	mass density [kg/m3]	refractive index
[1]	780.82 ± 0.15	–
[2]	–	1.358 ± 0.0005

CO [methanol]
Details	mass density [kg/m3]	refractive index
[1]	781.87 ± 0.15	–
[2]	–	1.3255 ± 0.0005

CCCO [propan-1-ol]
Details	mass density [kg/m3]	refractive index
[1]	795.53 ± 0.15	–
[2]	–	1.3821 ± 0.0005

CC(C)O [propan-2-ol]
Details	mass density [kg/m3]	refractive index
[1]	776.71 ± 0.17	–
[2]	–	1.3741 ± 0.0005
